Source: patent US20260232767A1, “INTERLEUKIN-23 RECEPTOR ANTAGONIST PEPTIDES FOR USE IN THE TREATMENT OF PSORIASIS” (Janssen Pharmaceutica NV, priority 2023, published 2026)

System: BD-2
Assay: Serum BD-2 immunoassay
Format: in vivo, human
Conditions: all treatment groups vs placebo; as early as Week 4
Method: To evaluate psoriasis relevant systemic biomarkers (Beta-defensin 2 (BD-2), IL-17A, IL-17F, and IL-22), protein concentrations were measured in serum using validated immunoassays. The IL-17A (Catalog #03-0159-00) and IL-17F (Catalog #03-0164-00) assays used are commercially available SMC™-based high sensitivity immunoassays produced by the EMD Millipore Corporation. The manufacturer's protocols were followed and analyzed on the Erenna® instrument platform except for the use of 11 μL Elution Buffer B. While the IL-22 assay is also based on the SMC™ platform and run on the Erenna instrument, the assay was developed internally as a coated plate-based assay. The development and optimization of the BD-2 assay was done on the Meso Scale Discovery on the electrochemiluminescence-based platform, a division of Meso Scale Diagnostics LLC (MSD). For all assays, concentration adjustments were made to values measuring below empirically defined LLOQ or empirically defined ULOQ values. Assay QC verified performance of generated standard curves (average concentration recovery & CV of technical replicates) and control samples (inter-assay plate agreement (CV)).
Serum levels of psoriasis disease biomarkers BD-2, IL-22, IL-17A, and IL-17F relative to baseline were analyzed in patients who received placebo or the compound of Formula (I) and compared to clinical response. […]

## CC(=O)NCCCC[C@@H]1NC(=O)[C@H](Cc2c[nH]c3c(C)cccc23)NC(=O)[C@H]([C@@H](C)O)NC(=O)[C@H](CC(N)=O)NC(=O)[C@@H](NC(C)=O)C(C)(C)SSC(C)(C)[C@@H](C(=O)N[C@@H](Cc2ccc(OCCN)cc2)C(=O)N[C@@H](Cc2ccc3ccccc3c2)C(=O)NC2(C(=O)N[C@@H](CCC(=O)O)C(=O)N[C@@H](CC(N)=O)C(=O)N[C@@H](Cc3cccnc3)C(=O)N(C)CC(N)=O)CCOCC2)NC1=O [IL-23 receptor antagonist peptide, Ac-[Pen]*-N-T-[W(7-Me)]-[Lys(Ac)]-[Pen]*-Phe[4-(2-aminoethoxy)]-[2-Nal]-[THP]-E-N-[3-Pal]-Sarc-NH2 (*[Pen]-[Pen]* formdisulfidebond)]
  BD-2 serum levels: Statistically significant reduction
